Test results: patent US11579088B2, “Device and method for imaging shortwave infrared fluorescence” (Massachusetts Institute of Technology, priority 2016, dated 2023)

System: liver
Test: Detection of indocyanine green across SWIR wavelengths in vivo (hepatobiliary clearance)
Conditions: mouse, intravenous 1.7 mg/kg, SWIR fluorescence detection
Protocol: When injected into a living system, indocyanine green is metabolized by the liver and excreted by the liver and bile ducts by a process called hepatobiliary clearance. This process was observed, noninvasively, by injecting a solution of indocyanine green intravenously into a mouse and using an SWIR imaging system as described herein to observe the fluorescence of indocyanine green. The dye was injected at a dose of 1.7 mg/kg which is below the maximum recommended dose of indocyanine green in humans. […] Despite the fact that 1500 nm is far from the peak emission of indocyanine green, there is sufficient emission intensity from the tail of the emission peak in this wavelength region to obtain a SWIR fluorescence image. Separately, hepatobiliary excretion of ICG into the small intestine in a mouse was also imaged using a near video rate imaging of 19.7 frames per second using a 1200 nm long-pass filter, which enabled capturing the peristaltic movements of the small intestine. Although the frame rate was slower, 2.0 frames per second, it was possible to image the ICG clearance using a 1500 nm long-pass filter, capturing wavelengths between roughly 1500 and 1620 nm.

accumulation in the liver: observed
SMILES: CC1(C)C(/C=C/C=C/C=C/C=C2\N(CCCCS(=O)(=O)O)c3ccc4ccccc4c3C2(C)C)=[N+](CCCCS(=O)(=O)[O-])c2ccc3ccccc3c21 [ICG, indocyanine green]
